± gives the standard deviation of the averaged measurements.
Experiments:
[1] = compound: C[C@@H]1CN(CC(=O)Nc2ccc3c(c2)Cc2cccc(-c4cc(=O)cc(N5CCOCC5)o4)c2S3)C[C@H](C)O1; experiment: surviving fraction relative to DMSO-only wells; higher = less growth inhibition; conditions: exposure time: 5 days
Summary of the method: (§1)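 In 384-well plates, 250–500 log-phase tumour cells per well were given 24 hours before five days of continuous exposure to inhibitors at 0.5, 1, 5, 10, 50, 100, 500 and 1000 nM. Surviving fraction is luminescence from CellTiter-Glo, normalised to the median of wells containing DMSO alone. Reading took place after 10 minutes at room temperature.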

BLEOMYCIN = compound: Cc1c(N)nc([C@H](CC(N)=O)NC[C@H](N)C(N)=O)nc1C(=O)N[C@H](C(=O)N[C@H](C)[C@@H](O)[C@H](C)C(=O)N[C@H](C(=O)NCCc1nc(-c2nc(C(=O)NCCC[S+](C)C)cs2)cs1)[C@@H](C)O)[C@@H](OC1OC(CO)C(O)C(O)C1OC1OC(CO)C(O)C(OC(N)=O)C1O)c1cnc[nH]1 [BLEOMYCIN]; experiment: as above; conditions: exposure time: 5 days
Summary of the method: as §1

| Test System | surviving fraction ([1]; 0.5 nM) | surviving fraction ([1]; 1 nM) | surviving fraction ([1]; 5 nM) | surviving fraction ([1]; 10 nM) | surviving fraction ([1]; 50 nM) | surviving fraction ([1]; 100 nM) | surviving fraction ([1]; 500 nM) | surviving fraction ([1]; 1000 nM) | surviving fraction (BLEOMYCIN; 0.5 nM) | surviving fraction (BLEOMYCIN; 1 nM) | surviving fraction (BLEOMYCIN; 5 nM) | surviving fraction (BLEOMYCIN; 10 nM) | surviving fraction (BLEOMYCIN; 50 nM) | surviving fraction (BLEOMYCIN; 100 nM) | surviving fraction (BLEOMYCIN; 500 nM) | surviving fraction (BLEOMYCIN; 1000 nM) |
| --- | --- | --- | --- | --- | --- | --- | --- | --- | --- | --- | --- | --- | --- | --- | --- | --- |
| MDAMB361 BREAST | 0.778 ± 0.042 | 0.885 ± 0.074 | 0.776 ± 0.078 | 0.756 ± 0.083 | 0.591 ± 0.036 | 0.765 ± 0.056 | 0.548 ± 0.045 | 0.529 ± 0.071 | 0.78 ± 0.07 | 0.761 ± 0.13 | 0.698 ± 0.03 | 0.819 ± 0.067 | 0.843 ± 0.016 | 0.882 ± 0.046 | 0.838 ± 0.047 | 0.865 ± 0.14 |
| MDAMB436 BREAST | 0.892 ± 0.043 | 0.962 ± 0.095 | 0.922 ± 0.027 | 0.928 ± 0.058 | 0.858 ± 0.067 | 0.805 ± 0.068 | 0.761 ± 0.029 | 0.611 ± 0.066 | 0.799 ± 0.027 | 0.825 ± 0.031 | 0.834 ± 0.024 | 0.791 ± 0.033 | 0.773 ± 0.031 | 0.814 ± 0.06 | 0.598 ± 0.056 | 0.506 ± 0.073 |
| MDAMB453 BREAST | 1.02 ± 0.027 | 0.937 ± 0.054 | 0.994 ± 0.023 | 0.966 ± 0.035 | 0.937 ± 0.023 | 0.897 ± 0.046 | 0.9723 ± 0.0063 | 0.988 ± 0.039 | 1.06 ± 0.051 | 1.03 ± 0.011 | 1.05 ± 0.045 | 1.09 ± 0.064 | 1.067 ± 0.009 | 1.14 ± 0.052 | 0.851 ± 0.061 | 0.711 ± 0.024 |
| MDAMB468 BREAST | 0.975 ± 0.015 | 0.921 ± 0.024 | 0.951 ± 0.026 | 1 ± 0.025 | 0.935 ± 0.018 | 1 ± 0.091 | 0.824 ± 0.12 | 0.756 ± 0.076 | 0.804 ± 0.036 | 0.863 ± 0.058 | 0.912 ± 0.044 | 0.932 ± 0.039 | 1.09 ± 0.027 | 0.989 ± 0.049 | 0.768 ± 0.035 | 0.577 ± 0.026 |
| MFM223 BREAST | 1.17 ± 0.17 | 1.2 ± 0.037 | 1.17 ± 0.052 | 1.19 ± 0.02 | 0.935 ± 0.1 | 0.869 ± 0.12 | 0.885 ± 0.035 | 0.794 ± 0.1 | 0.719 ± 0.028 | 0.784 ± 0.13 | 0.702 ± 0.076 | 0.703 ± 0.032 | 0.961 ± 0.049 | 0.923 ± 0.0095 | 0.789 ± 0.047 | 0.681 ± 0.047 |
| MG63 BONE | 1.03 ± 0.032 | 1.03 ± 0.038 | 1.076 ± 0.0081 | 1.1 ± 0.04 | 1.06 ± 0.02 | 1.08 ± 0.028 | 0.971 ± 0.025 | 0.919 ± 0.022 | 0.861 ± 0.018 | 0.876 ± 0.018 | 0.864 ± 0.025 | 0.829 ± 0.018 | 0.831 ± 0.02 | 0.64 ± 0.075 | 0.22 ± 0.035 | 0.132 ± 0.0027 |
| MHM BONE | 1.03 ± 0.024 | 1.01 ± 0.055 | 1.05 ± 0.012 | 1.05 ± 0.021 | 1.08 ± 0.0062 | 1.1 ± 0.018 | 1.08 ± 0.024 | 1.07 ± 0.032 | 0.966 ± 0.034 | 0.975 ± 0.015 | 1.01 ± 0.03 | 0.985 ± 0.019 | 0.999 ± 0.014 | 0.921 ± 0.016 | 0.718 ± 0.013 | 0.665 ± 0.0046 |
| NCIH441 LUNG | 1.04 ± 0.092 | 1.03 ± 0.085 | 0.957 ± 0.1 | 1.07 ± 0.062 | 1.11 ± 0.035 | 1.11 ± 0.087 | 1.02 ± 0.056 | 1.14 ± 0.11 | 0.956 ± 0.093 | 1.01 ± 0.05 | 0.919 ± 0.045 | 0.887 ± 0.063 | 0.838 ± 0.066 | 0.857 ± 0.015 | 0.762 ± 0.017 | 0.52 ± 0.028 |
| NOS1 BONE | 1.05 ± 0.15 | 1.07 ± 0.1 | 1.12 ± 0.13 | 1.23 ± 0.13 | 1.047 ± 0.007 | 1.12 ± 0.15 | 0.818 ± 0.029 | 0.661 ± 0.057 | 0.877 ± 0.087 | 0.841 ± 0.063 | 0.795 ± 0.04 | 0.782 ± 0.14 | 1.02 ± 0.33 | 0.863 ± 0.038 | 0.557 ± 0.046 | 0.656 ± 0.25 |
| NY BONE | 1.04 ± 0.014 | 1.06 ± 0.021 | 1.05 ± 0.024 | 1.07 ± 0.011 | 1.09 ± 0.043 | 1.12 ± 0.029 | 0.9613 ± 0.0029 | 0.915 ± 0.014 | 0.9287 ± 0.0064 | 0.925 ± 0.054 | 0.938 ± 0.028 | 0.911 ± 0.026 | 0.793 ± 0.035 | 0.589 ± 0.044 | 0.238 ± 0.0045 | 0.161 ± 0.012 |
| OS25HAL BONE | 1.02 ± 0.026 | 1.02 ± 0.031 | 1.02 ± 0.022 | 1.02 ± 0.016 | 1.019 ± 0.0078 | 1.01 ± 0.019 | 1.05 ± 0.02 | 1.02 ± 0.018 | 0.885 ± 0.027 | 0.8967 ± 0.0078 | 0.924 ± 0.026 | 0.894 ± 0.027 | 0.936 ± 0.011 | 0.895 ± 0.058 | 0.511 ± 0.048 | 0.286 ± 0.004 |
| OSHN BONE | 1.06 ± 0.017 | 1.06 ± 0.029 | 1.09 ± 0.016 | 1.07 ± 0.025 | 1.017 ± 0.0072 | 1.021 ± 0.0095 | 1.01 ± 0.019 | 0.977 ± 0.0061 | 0.9207 ± 0.0087 | 0.916 ± 0.012 | 0.916 ± 0.007 | 0.903 ± 0.024 | 0.925 ± 0.0044 | 0.856 ± 0.07 | 0.29 ± 0.039 | 0.132 ± 0.03 |
| PCI30 HEADNECK | 0.947 ± 0.047 | 0.947 ± 0.054 | 0.969 ± 0.078 | 1.04 ± 0.052 | 1.04 ± 0.064 | 1.03 ± 0.1 | 1 ± 0.034 | 0.867 ± 0.044 | 0.917 ± 0.054 | 0.887 ± 0.054 | 0.942 ± 0.064 | 0.958 ± 0.04 | 0.655 ± 0.075 | 0.509 ± 0.048 | 0.32 ± 0.044 | 0.334 ± 0.033 |
| RDES SOFT TISSUE | 1.18 ± 0.1 | 1.15 ± 0.11 | 0.972 ± 0.078 | 1.08 ± 0.24 | 0.759 ± 0.24 | 0.786 ± 0.23 | 0.799 ± 0.17 | 0.912 ± 0.24 | 0.743 ± 0.081 | 0.794 ± 0.28 | 0.732 ± 0.089 | 0.783 ± 0.096 | 0.985 ± 0.27 | 0.915 ± 0.09 | 0.947 ± 0.19 | 0.582 ± 0.2 |
| S68 BREAST | 1.03 ± 0.2 | 1.16 ± 0.29 | 1.09 ± 0.28 | 1.24 ± 0.22 | 0.826 ± 0.13 | 0.79 ± 0.18 | 0.589 ± 0.086 | 0.516 ± 0.076 | 0.907 ± 0.057 | 0.858 ± 0.22 | 1.04 ± 0.15 | 0.847 ± 0.44 | 1.14 ± 0.15 | 0.911 ± 0.1 | 0.56 ± 0.076 | 0.369 ± 0.083 |
| SAOS2 BONE | 1.08 ± 0.037 | 1.01 ± 0.018 | 1.07 ± 0.021 | 1.1 ± 0.051 | 0.895 ± 0.057 | 0.977 ± 0.12 | 0.8487 ± 0.0063 | 0.774 ± 0.01 | 0.8247 ± 0.0029 | 0.805 ± 0.068 | 0.856 ± 0.016 | 0.698 ± 0.11 | 0.968 ± 0.024 | 0.904 ± 0.063 | 0.685 ± 0.034 | 0.462 ± 0.054 |
| SCC003 HEADNECK | 1.06 ± 0.054 | 1.03 ± 0.013 | 1.12 ± 0.077 | 1.08 ± 0.045 | 0.984 ± 0.033 | 0.967 ± 0.096 | 1.04 ± 0.1 | 0.908 ± 0.091 | 0.782 ± 0.088 | 0.787 ± 0.087 | 0.792 ± 0.076 | 0.822 ± 0.12 | 0.975 ± 0.012 | 0.934 ± 0.039 | 0.56 ± 0.05 | 0.457 ± 0.016 |
| SCC36 HEADNECK | 0.993 ± 0.025 | 1.02 ± 0.058 | 1.09 ± 0.086 | 1.03 ± 0.026 | 0.859 ± 0.071 | 0.896 ± 0.031 | 0.801 ± 0.045 | 0.798 ± 0.031 | 0.763 ± 0.09 | 0.762 ± 0.064 | 0.726 ± 0.027 | 0.7173 ± 0.004 | 0.998 ± 0.081 | 0.907 ± 0.1 | 0.631 ± 0.011 | 0.499 ± 0.012 |
| SCC47 HEADNECK | 1.06 ± 0.1 | 1.04 ± 0.036 | 1.1 ± 0.057 | 1.06 ± 0.075 | 1.04 ± 0.042 | 1.09 ± 0.04 | 1.05 ± 0.064 | 1.12 ± 0.093 | 0.907 ± 0.031 | 0.909 ± 0.046 | 0.917 ± 0.038 | 0.9 ± 0.019 | 0.843 ± 0.026 | 0.677 ± 0.047 | 0.466 ± 0.057 | 0.436 ± 0.035 |
| SCC90 HEADNECK | 1.01 ± 0.16 | 1.03 ± 0.11 | 1.07 ± 0.027 | 1.12 ± 0.033 | 1.02 ± 0.042 | 0.952 ± 0.077 | 0.963 ± 0.03 | 0.971 ± 0.12 | 0.933 ± 0.085 | 0.929 ± 0.061 | 0.94 ± 0.082 | 0.946 ± 0.018 | 1.06 ± 0.089 | 1.03 ± 0.085 | 0.885 ± 0.11 | 0.783 ± 0.044 |

From the supplement of paper PMC6045584
